# Columns and labels:
# Bax-Bak DKO MEFs = assay: Annexin V/PI flow cytometry cell death, Bax-Bak DKO MEFs; assay type: cell-based, mouse; conditions: 24 h
# Method: Cell death is measured using an annexin V staining kit (BD Biosciences, San Jose, Calif., USA). Briefly, Bax-Bak wild-type and Bax-Bak DKO MEFs are treated with the 5 μM pomiferin for 24 h. Cells are then harvested and analysed by multiparametric flow cytometry using FITC-Annexin V and Propidium iodide staining (BD Biosciences, San Jose, Calif., USA) according to the manufacturer's instructions. Flow cytometry is then carried out using a FACSCalibur flow cytometer (BD Biosciences, San Jose, Calif., USA). Data acquisition and analysis is performed with CellQuest (BD Biosciences, San Jose, Calif., USA). Data are obtained from three independent experiments. Cell death is measured using an annexin V staining kit (BD Biosciences, San Jose, Calif., USA). Briefly, Bax-Bak DKO MEFs are treated with the 5 μM pomiferin in the presence or absence of 5 mM autophagic inhibitor 3-MA for 24 h. Cells are then harvested and analysed by multiparametric flow cytometry using FITC-Annexin V and Propidium iodide staining (BD Biosciences, San Jose, Calif., USA) according to the manufacturer's instructions. Flow cytometry is then carried out using a FACSCalibur flow cytometer (BD Biosciences, San Jose, Calif., USA). Data acquisition and analysis is performed with CellQuest (BD Biosciences, San Jose, Calif., USA). Data are obtained from three independent experiments.
# [1] = tested on: LNCap (human prostate cancer) cells; assay: MTT cytotoxicity assay, LNCap; assay type: cell-based; conditions: 72 h, 3 days, read-out: Means of IC50
# Method: Pomiferin is dissolved in DMSO at a final concentration of 100 mmol/L and stored at −20° C. Cytotoxicity is assessed using the 3-(4,5-dimethylthiazol-2-yl)-2,5-diphenyltetrazolium bromide assay. 4000-8000 HeLa (human cervical cancer), MCF-7 (human breast cancer), HepG2 and Hep3B (human liver cancer), H1299 and A549 (human lung cancer), LNCap (human prostate cancer) and LLC-1 (mouse Lewis lung carcinoma) cells are seeded on 96-well plates per well. After overnight pre-incubation, the cells are exposed to different concentrations of pomiferin ([…]) for 3 days. Subsequently, 10 μL of MTT reagents is added to each well and incubated at 37° C. for 4 hours followed by the addition of 100 μL solubilization buffer (10% SDS in 0.01 mol/L HCl) and overnight incubation. Absorbance at 585 nm is determined from each well the next day. The percentage of cell viability is calculated using the following formula: Cell viability (%)=Cells number treated/Cells number DMSO control×100. Data are obtained from three independent experiments.
smiles,measurement,setting,value
CC(C)=CCc1c2c(c3occ(-c4ccc(O)c(O)c4)c(=O)c3c1O)C=CC(C)(C)O2 [pomiferin],cell death (in words),"Bax-Bak DKO MEFs; 5 μM pomiferin alone, Bax-Bak DKO cells, FIG. 8B",significantly induced cell death
same,cell death,"Bax-Bak DKO MEFs; 5 μM, annexin V flow cytometry, Bax-Bak DKO MEFs",~80%
same,IC50,[1],16.2 µM

# Reference: patent US20170014375A1, “PHARMACEUTICAL COMPOSITION COMPRISING EFFECTIVE DOSE OF POMIFERIN FOR TREATING CANCERS” (Macau University of Science and Technology, priority 2015, published 2017)
